This note sets out measurements from patent publication US20200061062A1, “INHIBITORS OF HUMAN PHOSPHATIDYLINOSITOL 3-KINASE DELTA” (ICOS Corporation, priority 2000, published 2020).

The target in data set [1] is T1, PI3Kα (Homo sapiens, UniProt P42336).
T1 construct: His tag (pFastbac HTb vector) (N); FLAG; made in house; host or cells: Sf21 insect cells (baculovirus)
Briefly: Biochemical assay of PI3K potency and selectivity using 20 μM ATP, Alpha. The note with it: for Alpha/Delta Ratio / IC50: 20 μM ATP; for Alpha/Delta Ratio: ratio of IC50 values, > = hypothetical ratio with 100 μM substituted for the missing IC50; for IC50: read-out: Alpha IC50; for remaining activity at 100 µM: read-out: percent activity remaining at 100 μM, 20 μM ATP, 100 μM compound did not inhibit by at least 50%. An outline of the steps: (§1)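 Lipid-kinase radiometric assay with γ-[32P]ATP (20 μM ATP) on PIP2/PS liposomes in 20 mM HEPES pH 7.4; the 3× substrate mix held […] and 6 μM liposomes.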

Data set [2] addresses T2, PI3Kβ (Homo sapiens, UniProt P42338).
T2 construct: His tag (pFastbac HTa vector) (N); FLAG (N); made in house; host or cells: Sf21 insect cells (baculovirus)
Briefly: Biochemical assay of PI3K potency and selectivity using 20 μM ATP, Beta. The conditions noted are these: 20 μM ATP; for Beta/Delta Ratio: ratio of IC50 values, > = hypothetical ratio with 100 μM substituted for the missing IC50; for IC50: read-out: Beta IC50; for remaining activity at 100 µM: read-out: Beta: percent activity remaining at 100 μM, 100 μM compound did not inhibit by at least 50%. An outline of the steps: as §1

Data set [3] concerns Murine splenocytes (Balb/c). The experiment in a line: B cell proliferation in response to cell surface IgM stimulation. The conditions noted are these: Mus musculus, Splenocyte; stimulated B cell proliferation; read-out: Mouse BCR Stim (EC50). It is filed as cell-based. As to the method:
In the above experiment, the B cells were stimulated using PANSORBIN®. The effect of D-000 on B cell proliferation response when they were stimulated through their cell surface IgM using anti-IgM antibody also was measured. Murine splenocytes (Balb/c) were plated into 96-well microtiter plates at 2×10^5 cells per well in 10% FBS/RPMI. Appropriate dilutions of test inhibitor in complete medium were added to the cells and the plates were incubated for 30-60 minutes prior to the addition of stimulus. Following the preincubation with test inhibitor an F(ab′)2 preparation of goat antibody specific for the μ-chain of mouse IgM was added to the wells at a final concentration of 25 μg/mL. The plates were incubated at 37° C. for 3 days and 1 μCi of [^3H]-thymidine was added to each well for the final four hours of culture. The plates were harvested onto fiber filters washed and the incorporation of radiolabel was determined using a beta counter (Matrix 96, Packard Instrument Co., Downers Grove, Ill.) and expressed as counts per minute (CPM).
(§2) Using the methods described in Examples 3-5, above, compounds of the invention were tested for inhibitory activity and potency in assays of stimulated B and T cell proliferation, neutrophil (PMN) migration, and neutrophil (PMN) elastase release. In Table 4, the values shown are effective concentrations of the compound (EC50; μM). Where no value is given, no assay was performed.

The subject of data set [4] is T cell proliferation. The experiment in a line: Stimulated T cell proliferation (Mouse TCE Stim, Table 4). It is filed as cell-based. The conditions noted are these: stimulated T cell proliferation, read-out: Mouse TCE Stim (EC50).
The target of data set [5] is T3, PI3Kδ (Homo sapiens, UniProt O00329, S253N). Briefly: Biochemical assay of PI3K potency and selectivity using 20 μM ATP, Delta. On the set-up: His tag (pFastbac HTb vector) (N); FLAG; made in house; host or cells: Sf21 insect cells (baculovirus). The note with it: 20 μM ATP; read-out: Delta IC50. An outline of the steps:
as §1

Data set [6] deals with T3, PI3Kδ. Briefly: Biochemical assay using 200 μM ATP, Delta.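 Note: radiometric filter-binding assay: PI3Kδ transfers ³²P from γ-[³²P]ATP onto PIP2/PS liposomes, counted by scintillation, enzyme-only wells as positive control, no-enzyme wells as background.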
For data set [7], the target named is T1, PI3Kα. Briefly: Biochemical assay using 200 μM ATP, Alpha.
Protocol: (§3) PI3Kδ catalyzes a phosphotransfer from γ-[^32P]ATP to PIP2/PS liposomes at the D3′ position of the PIP2 lipid inositol ring. This reaction is MgCl2 dependent and is quenched in high molarity potassium phosphate buffer pH 8.0 containing 30 mM EDTA. […] The reaction products (and all unlabelled products) are transferred to a 96-well, prewetted PVDF filter plate, filtered, and washed in high molarity potassium phosphate. Scintillant is added to the dried wells and the incorporated radioactivity is quantitated.
(§4) This dilution established a final concentration of 200 μM ATP in the reaction volume. The reaction was stopped with 150 μL quench buffer (1.0 M potassium phosphate pH 8.0, 30 mM EDTA). A portion of the quenched solution (180 μL) was then transferred to a PVDF filter plate (Millipore # MAIP NOB prewetted with sequential 200 μL washes of 100% methanol, water, and finally 1.0 M potassium phosphate pH 8.0 wash buffer).
(§5) The PVDF filter plate was aspirated under moderate vacuum (2-5 mm Hg), washed with 5×200 μL of wash buffer, and then dried by aspiration. The filter was subsequently blotted, allowed to air dry completely, and inserted into a Wallac counting cassette with 50 μL of Ecoscint scintillation cocktail added per well.
(§6) Subsequent selectivity assays were done similarly using the same 3× substrate stocks except they contained 0.05 mCi/mL γ[^32P]ATP and 3 mM PIP2. Subsequent selectivity assays also used the same 3× enzyme stocks, except they now contained 3 nM of any given PI3K isoform.
(§7) For all selectivity assays, the test compounds were weighed out and dissolved into 10-50 mM stocks in 100% DMSO (depending on their respective solubilities) and stored at −20° C. […] From these dilutions, 20 μL was added into the assay wells alongside water blanks used for the enzyme (positive) control and the no enzyme (background) control.
(§8) This selectivity protocol is identical to that described above, except the 3× stock ATP concentration was 600 μM.
The target of data set [8] is T4, PI3Kγ (Homo sapiens, UniProt P48736).
T4 construct: His tag (pFastbac HTb vector) (N); FLAG (N); made in house; host or cells: Sf21 insect cells (baculovirus)
T4 sequence (P48736 whole entry): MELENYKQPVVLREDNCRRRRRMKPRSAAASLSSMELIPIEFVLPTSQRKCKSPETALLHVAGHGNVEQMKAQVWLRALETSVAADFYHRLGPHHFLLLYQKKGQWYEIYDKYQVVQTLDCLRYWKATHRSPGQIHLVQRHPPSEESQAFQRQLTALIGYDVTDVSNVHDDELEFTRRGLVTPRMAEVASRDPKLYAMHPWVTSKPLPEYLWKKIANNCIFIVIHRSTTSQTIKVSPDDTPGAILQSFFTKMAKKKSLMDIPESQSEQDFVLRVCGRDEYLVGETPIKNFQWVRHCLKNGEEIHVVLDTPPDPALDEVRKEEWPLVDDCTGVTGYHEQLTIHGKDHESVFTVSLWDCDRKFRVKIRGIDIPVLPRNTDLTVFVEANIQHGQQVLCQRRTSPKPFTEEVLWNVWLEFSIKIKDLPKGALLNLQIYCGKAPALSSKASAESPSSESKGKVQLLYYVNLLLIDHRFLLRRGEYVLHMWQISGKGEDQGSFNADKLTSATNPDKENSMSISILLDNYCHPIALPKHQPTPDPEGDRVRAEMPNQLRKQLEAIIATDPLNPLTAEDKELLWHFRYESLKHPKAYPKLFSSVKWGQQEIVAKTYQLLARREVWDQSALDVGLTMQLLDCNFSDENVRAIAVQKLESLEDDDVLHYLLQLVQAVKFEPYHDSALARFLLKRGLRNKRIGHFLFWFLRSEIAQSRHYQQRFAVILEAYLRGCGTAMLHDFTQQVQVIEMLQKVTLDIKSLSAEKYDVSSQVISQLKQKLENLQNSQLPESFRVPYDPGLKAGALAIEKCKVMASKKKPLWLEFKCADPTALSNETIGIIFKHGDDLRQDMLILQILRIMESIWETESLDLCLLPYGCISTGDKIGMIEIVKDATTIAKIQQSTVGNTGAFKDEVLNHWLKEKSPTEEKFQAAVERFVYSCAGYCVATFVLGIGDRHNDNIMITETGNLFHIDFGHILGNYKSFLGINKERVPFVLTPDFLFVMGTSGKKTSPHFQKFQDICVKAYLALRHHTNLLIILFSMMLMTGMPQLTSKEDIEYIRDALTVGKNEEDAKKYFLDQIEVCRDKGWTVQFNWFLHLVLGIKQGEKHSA
Briefly: Biochemical assay of PI3K potency and selectivity using 20 μM ATP, Gamma. An excerpt: Recombinant baculoviruses containing the above clones were generated using manufacturer's recommended protocol (Life Technologies). Baculoviruses expressing His-tagged p110α, p110γ, or p110δ catalytic subunit and p85 subunit were coinfected into Sf21 insect cells. To enrich the heterodimeric enzyme complex, an excess amount of baculovirus expressing p85 subunit was infected, and the His-tagged p110 catalytic subunit complexed with p85 was purified on nickel affinity column. […] In an alternate approach, p101 can be cloned into baculovirus, to permit coexpression with its preferred binding partner p110γ. […]

The target of data set [9] is T2, PI3Kβ. The experiment in a line: Biochemical assay using 200 μM ATP, Beta.
Protocol: as §3, §4, §5, §6, §7, §8
Data set [10] relates to human neutrophils. The experiment in a line: Elastase exocytosis from neutrophils (fMLP-induced). The note with it: neutrophil (PMN) elastase release. Format: cell-based. On the procedure:
Aliquots (8 mL) of heparinized blood from healthy volunteers were layered on 3 mL cushions of 7.3% FICOLL® (Sigma, St. Louis, Mo.) and 15.4% HYPAQUE® (Sigma) and centrifuged at 900 rpm for 30 min at room temperature in a table top centrifuge (Beckman). The neutrophil-rich band just above the FICOLL®-HYPAQUE® cushion was collected and washed with Hanks' balanced salt solution (HBSS) containing 0.1% gelatin. Residual erythrocytes were removed by hypotonic lysis with 0.2% NaCl. The neutrophil preparation was washed twice with HBSS containing 0.1% gelatin and used immediately.
In addition to superoxide generation, activated neutrophils also respond by releasing several proteases that are responsible for the destruction of tissues and cartilage during inflammation. As an indication of protease release, the effect of D-000 on elastase exocytosis was measured. Elastase exocytosis was quantitated by modification of the procedure described by Ossanna et al. (J Clin Invest, 77:1939-1951 (1986)), as follows. Purified human neutrophils (0.2×10^6) (treated with either DMSO or a serial dilution of D-000 in DMSO) were stimulated with fMLP in PBS containing 0.01 mg/mL cytochalasin B, 1.0 μM sodium azide (NaN3), 5 μg/mL L-methionine and 1 μM fMLP for 90 min at 37° C. in a 96-well plate. At the end of the incubation period, the plate was centrifuged for 5 min at 1000 rpm, and 90 μL of the supernatant was transferred to 10 μL of 10 mM solution of an elastase substrate peptide, MeO-suc-Ala-Ala-Pro-Val-pNA, wherein MeO-suc=methoxy-succinyl; pNA=p-nitroanilide (Calbiochem, San Diego, Calif.). Absorbance at 410 nm was monitored for 2 hr in a 96-well plate reader. To measure the relative amounts of elastase excytosed, all absorbance values were normalized to the values without any inhibitor. […] Inhibition was half-maximal at a concentration of about 2-3 μM D-000.
as §2

Data set [11] addresses T4, PI3Kγ. Briefly: Biochemical assay using 200 μM ATP, Gamma.

A word on the melting point: it is the temperature of the solid-liquid transition. As a reminder, the EC50 is the concentration needed to bring the measured effect to its halfway point. As usually defined, the remaining activity is the signal under treatment as a percentage of the control signal.

T3 sequence (O00329 whole entry S253N): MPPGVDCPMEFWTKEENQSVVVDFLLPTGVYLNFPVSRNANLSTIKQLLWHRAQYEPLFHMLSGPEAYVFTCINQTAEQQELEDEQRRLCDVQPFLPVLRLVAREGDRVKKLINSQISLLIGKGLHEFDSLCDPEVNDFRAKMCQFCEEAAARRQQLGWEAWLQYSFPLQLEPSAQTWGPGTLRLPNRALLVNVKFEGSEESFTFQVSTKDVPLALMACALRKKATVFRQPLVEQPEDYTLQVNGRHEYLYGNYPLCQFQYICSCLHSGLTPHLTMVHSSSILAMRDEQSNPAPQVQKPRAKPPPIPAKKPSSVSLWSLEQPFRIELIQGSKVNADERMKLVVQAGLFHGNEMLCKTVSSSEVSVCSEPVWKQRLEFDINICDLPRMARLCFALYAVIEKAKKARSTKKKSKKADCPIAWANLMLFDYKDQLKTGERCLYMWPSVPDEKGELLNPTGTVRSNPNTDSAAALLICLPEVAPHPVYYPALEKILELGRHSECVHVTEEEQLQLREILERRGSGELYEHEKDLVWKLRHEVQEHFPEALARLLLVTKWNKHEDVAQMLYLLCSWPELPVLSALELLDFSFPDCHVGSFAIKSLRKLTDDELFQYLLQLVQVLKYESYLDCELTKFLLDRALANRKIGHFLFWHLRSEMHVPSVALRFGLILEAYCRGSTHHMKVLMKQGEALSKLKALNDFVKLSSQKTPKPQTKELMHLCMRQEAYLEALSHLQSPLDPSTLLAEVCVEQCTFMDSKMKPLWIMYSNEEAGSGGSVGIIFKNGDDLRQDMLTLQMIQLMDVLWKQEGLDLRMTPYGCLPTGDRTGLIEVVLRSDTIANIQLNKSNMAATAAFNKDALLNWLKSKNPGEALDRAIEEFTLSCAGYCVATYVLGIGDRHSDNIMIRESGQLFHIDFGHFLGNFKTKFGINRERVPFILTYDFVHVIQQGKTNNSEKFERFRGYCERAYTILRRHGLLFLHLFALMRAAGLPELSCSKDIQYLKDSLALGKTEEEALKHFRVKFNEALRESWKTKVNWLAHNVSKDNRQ
T3 sequence (P27986 whole entry partner): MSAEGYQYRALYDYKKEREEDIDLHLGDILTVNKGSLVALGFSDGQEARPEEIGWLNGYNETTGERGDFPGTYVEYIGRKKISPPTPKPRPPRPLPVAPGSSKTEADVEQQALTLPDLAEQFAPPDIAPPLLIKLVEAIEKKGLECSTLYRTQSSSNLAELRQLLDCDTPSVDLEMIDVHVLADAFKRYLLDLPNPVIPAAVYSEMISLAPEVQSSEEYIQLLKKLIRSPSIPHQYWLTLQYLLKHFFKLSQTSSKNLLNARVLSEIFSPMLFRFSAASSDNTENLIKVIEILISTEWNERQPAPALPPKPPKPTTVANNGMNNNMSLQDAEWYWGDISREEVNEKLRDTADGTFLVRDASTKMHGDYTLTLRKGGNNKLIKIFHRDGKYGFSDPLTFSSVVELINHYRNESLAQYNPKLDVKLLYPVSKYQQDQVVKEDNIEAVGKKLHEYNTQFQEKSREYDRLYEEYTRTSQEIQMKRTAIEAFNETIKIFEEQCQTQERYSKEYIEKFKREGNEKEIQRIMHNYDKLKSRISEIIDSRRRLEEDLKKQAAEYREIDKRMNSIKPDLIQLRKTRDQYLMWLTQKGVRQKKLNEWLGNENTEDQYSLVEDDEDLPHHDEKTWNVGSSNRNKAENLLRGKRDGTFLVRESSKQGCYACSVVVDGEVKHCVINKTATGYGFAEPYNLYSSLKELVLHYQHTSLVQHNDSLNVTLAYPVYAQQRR
T2 sequence (P42338 whole entry): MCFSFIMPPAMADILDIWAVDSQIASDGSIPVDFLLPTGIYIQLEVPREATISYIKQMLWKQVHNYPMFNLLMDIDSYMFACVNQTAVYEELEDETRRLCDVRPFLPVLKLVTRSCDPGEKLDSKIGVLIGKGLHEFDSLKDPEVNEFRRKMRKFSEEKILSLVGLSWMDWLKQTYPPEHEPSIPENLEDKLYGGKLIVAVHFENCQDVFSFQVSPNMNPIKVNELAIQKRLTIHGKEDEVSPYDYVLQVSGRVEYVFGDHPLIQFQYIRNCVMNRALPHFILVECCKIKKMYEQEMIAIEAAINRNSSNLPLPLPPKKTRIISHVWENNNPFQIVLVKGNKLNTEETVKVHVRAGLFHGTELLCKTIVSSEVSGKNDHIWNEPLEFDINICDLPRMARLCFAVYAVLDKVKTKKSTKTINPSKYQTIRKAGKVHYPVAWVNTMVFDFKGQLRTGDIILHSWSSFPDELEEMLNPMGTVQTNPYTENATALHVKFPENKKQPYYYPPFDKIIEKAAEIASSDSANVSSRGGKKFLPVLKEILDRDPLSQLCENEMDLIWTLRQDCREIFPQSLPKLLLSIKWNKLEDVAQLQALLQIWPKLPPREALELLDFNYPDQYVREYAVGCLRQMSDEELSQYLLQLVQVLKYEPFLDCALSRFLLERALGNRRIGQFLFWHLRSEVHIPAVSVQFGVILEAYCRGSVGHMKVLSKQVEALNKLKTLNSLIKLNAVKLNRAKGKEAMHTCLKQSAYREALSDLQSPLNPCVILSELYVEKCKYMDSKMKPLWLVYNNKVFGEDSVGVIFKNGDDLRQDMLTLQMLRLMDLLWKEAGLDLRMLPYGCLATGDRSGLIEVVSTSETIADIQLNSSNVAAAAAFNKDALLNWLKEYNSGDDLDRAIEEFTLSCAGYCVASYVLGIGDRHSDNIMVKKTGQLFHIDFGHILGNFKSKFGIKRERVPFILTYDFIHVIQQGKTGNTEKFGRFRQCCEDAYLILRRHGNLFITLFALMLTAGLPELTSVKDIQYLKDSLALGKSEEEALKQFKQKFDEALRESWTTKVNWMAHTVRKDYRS
T2 sequence (P27986 whole entry partner): as the sequence (P27986 whole entry partner) above
T1 sequence (P42336 whole entry): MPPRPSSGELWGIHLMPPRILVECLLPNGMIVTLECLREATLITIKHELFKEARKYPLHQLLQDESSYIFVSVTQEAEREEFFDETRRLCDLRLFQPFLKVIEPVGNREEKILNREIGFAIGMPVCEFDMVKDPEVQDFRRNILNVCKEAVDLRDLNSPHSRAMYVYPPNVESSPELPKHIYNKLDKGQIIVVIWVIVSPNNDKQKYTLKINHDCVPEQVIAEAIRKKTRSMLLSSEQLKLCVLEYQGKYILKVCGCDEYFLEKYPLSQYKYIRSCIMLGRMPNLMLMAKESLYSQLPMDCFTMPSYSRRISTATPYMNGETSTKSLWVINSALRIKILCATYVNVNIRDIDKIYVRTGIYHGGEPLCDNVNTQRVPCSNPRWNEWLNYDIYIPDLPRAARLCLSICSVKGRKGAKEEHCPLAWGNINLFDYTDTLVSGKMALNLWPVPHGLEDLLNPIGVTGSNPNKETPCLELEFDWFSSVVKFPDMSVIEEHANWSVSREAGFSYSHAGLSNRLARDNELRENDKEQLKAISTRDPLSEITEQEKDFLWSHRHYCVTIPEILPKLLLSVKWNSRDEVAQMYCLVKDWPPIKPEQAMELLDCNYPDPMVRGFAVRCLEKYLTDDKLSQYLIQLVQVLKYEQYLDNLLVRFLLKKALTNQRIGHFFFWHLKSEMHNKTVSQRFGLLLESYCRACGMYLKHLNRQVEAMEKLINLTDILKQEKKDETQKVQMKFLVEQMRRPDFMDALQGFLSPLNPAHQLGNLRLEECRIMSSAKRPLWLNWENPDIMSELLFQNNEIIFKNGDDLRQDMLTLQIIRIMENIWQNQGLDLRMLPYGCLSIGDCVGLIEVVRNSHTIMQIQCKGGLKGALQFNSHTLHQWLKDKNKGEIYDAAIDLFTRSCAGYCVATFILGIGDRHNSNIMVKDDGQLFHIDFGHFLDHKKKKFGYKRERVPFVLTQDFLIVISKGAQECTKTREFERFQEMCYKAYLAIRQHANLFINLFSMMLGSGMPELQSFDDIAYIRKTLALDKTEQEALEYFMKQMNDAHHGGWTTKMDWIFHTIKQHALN
T1 sequence (P27986 whole entry partner): as the sequence (P27986 whole entry partner) above

For `O=c1c2cccc(Cl)c2nc(CSc2ncnc3[nH]cnc23)n1-c1ccccc1Cl` [Compound D-021, 8-Chloro-3-(2-chlorophenyl)-2-(9H-purin-6-ylsulfanylmethyl)-3H-quinazolin-4-one], the melting point was in the range of 211.9 to 212.7 °C. In data set [1], the “Alpha/Delta Ratio” value was 62 and the IC50 was 100 µM. Besides, in [2], the “Beta/Delta Ratio” value was found to be 68 and the IC50 came out at 110 µM. Moreover, the EC50 in data set [3] was found to be 1.8 µM. Besides, in [4], the EC50 was 3.5 µM. In addition, the IC50 in [5] came to 1.6 µM.

`O=c1c2c(Cl)cccc2nc(CSc2ncnc3[nH]cnc23)n1-c1ccccc1F` [Compound D-011, 5-Chloro-3-(2-fluorophenyl)-2-(9H-purin-6-ylsulfanylmethyl)-3H-quinazolin-4-one] had a melting point of 244 °C. For the same compound, in data set [1], the “Alpha/Delta Ratio” value is >1,000 and the remaining activity at 100 µM was determined as 72%. For the same compound, the IC50 in data set [6] is 0.25 ± 0.2 µM. Besides, the “Alpha/Delta Ratio” value in data set [7] amounted to 700. The compound further showed an IC50 in data set [8] of 1 µM. Further, the “Gamma/Delta Ratio” value in data set [8] (ratio of IC50 values) worked out at 10. Further, in data set [2], the “Beta/Delta Ratio” value turned out to be 550 and the IC50 amounted to 55 µM. Moreover, the EC50 in data set [3] was found to be 0.3 ± 0.1 µM. Moreover, in data set [9], the “Beta/Delta Ratio” value was found to be 420 and the IC50 is 105 ± 35 µM. Further, a half-maximal effect in data set [10] (EC50) was put at 0.9 ± 0.7 µM. In addition, the IC50 in [5] was found to be 0.1 µM. Further, in [11], the “Gamma/Delta Ratio” value is recorded as 244 and the IC50 was determined as 61 ± 70 µM.

Regarding `O=c1c2c(F)cccc2nc(CSc2ncnc3[nH]cnc23)n1Cc1ccccc1` [Compound D-043, 3-benzyl-5-fluoro-2-(9H-purin-6-ylsulfanylmethyl)-3H-quinazolin-4-one], in [1], the “Alpha/Delta Ratio” value is on record as >47 and the remaining activity at 100 µM turned out to be 83%. In data set [2], the “Beta/Delta Ratio” value is reported as >47 and the remaining activity at 100 µM is 77%. In data set [3], the EC50 amounted to 1.4 µM. Also, the EC50 in data set [4] was 2.6 µM. For the same compound, the IC50 in [5] was 2.1 µM.

Take `Cc1cccc2nc(Cn3cnc4c(N)ncnc43)n(-c3ccccc3F)c(=O)c12` [Compound D-048, 2-(6-aminopurin-9-ylmethyl)-3-(2-fluorophenyl)-5-methyl-3H-quinazolin-4-one]: the results for the “Alpha/Delta Ratio” value in [1] and in data set [7] were 449 and 67, respectively. Besides, the IC50 was 70 µM in data set [1]; 1.4 ± 0.9 µM in data set [6]; 90 ± 57 µM in data set [7]; 14 µM in [2]; 95 ± 7 µM in data set [9]; 0.16 µM in data set [5]. In [11], the IC50 came to 123 ± 40 µM. Besides, the “Beta/Delta Ratio” value is on record as 90 in [2] and 70 in [9]. Also, the EC50 in [3] came to 0.4 ± 0.2 µM; in data set [10], 0.9 ± 0.2 µM; in data set [4], 5 µM. For the same compound, the “Gamma/Delta Ratio” value in data set [11] turned out to be 91.

`Nc1ncnc2c1ncn2Cc1nc2cccc(F)c2c(=O)n1Cc1ccccc1` [Compound D-049, 2-(6-aminopurin-9-ylmethyl)-3-benzyl-5-fluoro-3H-quinazolin-4-one]: the “Alpha/Delta Ratio” value in data set [1] was >100. Besides, the remaining activity at 100 µM in data set [1] is 110%. In addition, the “Beta/Delta Ratio” value in data set [2] was found to be 30. Further, the IC50 in data set [2] worked out at 30 µM; in data set [5], 1 µM. Further, the EC50 came to 2 µM in data set [3], 5 µM in data set [10] and 6.3 µM in [4].

Regarding `Cc1cccc2nc(CSc3ncnc4[nH]cnc34)n(-c3ccccc3C(C)C)c(=O)c12` [Compound D-035, 3-(2-isopropylphenyl)-5-methyl-2-(9H-purin-6-ylsulfanylmethyl)-3H-quinazolin-4-one], the “Alpha/Delta Ratio” value in data set [1] is given as 199; in [7], 193. In addition, the IC50 in [1] came out at 9 µM; in data set [6], 0.49 ± 0.1 µM; in data set [7] it was 95 ± 6 µM; in data set [2], 3 µM; in data set [9], 34 ± 6 µM; in data set [5], 0.05 µM. The same compound came in with an IC50 in data set [11] of 6.8 ± 1 µM. The “Beta/Delta Ratio” value in [2] is given as 65; in data set [9], 69. Further, the figures for the EC50 in data set [3], in data set [10] and in [4] were 0.2 ± 0.1 µM, 0.3 ± 0.1 µM and 2.9 ± 0.7 µM, respectively. Also, in [11], the “Gamma/Delta Ratio” value worked out at 14.

The compound `Nc1ncnc2c1ncn2Cc1nc2cc(F)ccc2c(=O)n1-c1ccccc1Cl` [Compound D-003, 2-(6-Aminopurin-o-ylmethyl)-3-(2-chlorophenyl)-7-fluoro-3N-quinazolin-4-one] had a melting point of 216.8 to 217.2 °C. For the same compound, in data set [1], the “Alpha/Delta Ratio” value came out at 22 and the IC50 is 92 µM. In [2], the “Beta/Delta Ratio” value is reported as >24 and the remaining activity at 100 µM was 53%. Moreover, in [3], the EC50 was determined as 3.9 µM. Besides, the EC50 in data set [4] was 5.7 µM. Moreover, the IC50 in data set [5] amounted to 4 µM.

Regarding `O=c1c2cc3ccccc3cc2nc(CSc2ncnc3[nH]cnc23)n1-c1ccccc1Cl` [Compound D-019, 3-(2-Chlorophenyl)-2-(9H-purin-6-ylsulfanylmethyl)-3H-benzo[g]quinazolin-4-one], the melting point was 247.8 to 254.4 °C (dec.). In [1], the “Alpha/Delta Ratio” value is reported as 10 and the IC50 came out at 67 µM. The same compound returned an IC50 in data set [6] of 30 µM. For the same compound, in [7], the “Alpha/Delta Ratio” value worked out at 7. Moreover, in [2], the “Beta/Delta Ratio” value stood at 15 and the IC50 turned out to be 105 µM. Also, the EC50 in data set [3] is 0.9 ± 0.01 µM. Further, in data set [9], the “Beta/Delta Ratio” value worked out at 3 and the IC50 is 100 µM. The EC50 in data set [4] worked out at 0.9 µM. Besides, the IC50 in data set [5] came to 7 µM. In data set [11], the “Gamma/Delta Ratio” value amounted to 1 and the IC50 amounted to 33 µM.
